# Columns and labels:
# [1] = system: mitochondrial complex-I; assay: In vivo effect on brain mitochondrial complex-I activity (NADH oxidation); design: species or system Sprague Dawley rats; details: intraperitoneally for 2 weeks, brain mitochondrial (P2) fraction
# Protocol: Various doses of MPX were administered intraperitoneally to Sprague Dawley rats for 2 weeks, while a control group was treated with saline. The rats were sacrificed one hour after the last injection, and the mitochondrial (P2) fraction was prepared from the dissected rat brains. Mitochondrial complex-I activity was based on the oxidation of NADH (5.6 mg in 1 ml water) measured at 340 nm (Ramsay et al. 1986. “Inhibition of mitochondrial NADH dehydrogenase by pyridine derivatives and its possible relation to experimental and idiopathic parkinsonism,” Biochem Biophys Res Commun 135:269-275 (this references is hereby incorporated by reference in its entirety)).
# [2] = system: N-methyl-4-phenyl-1,2,3,6-tetrahydropyridine induced dopaminergic neurodegeneration; details: in vivo; cited from earlier work
# [3] = system: complex-I; details: mouse, in vivo; cited from earlier work
structure (smiles),measurement,setting,value
"N[C@@H](Cc1ccc(O)c(O)c1)C(=O)O [Levodopa, L-3,4-dihydroxyphenylalanine]",mitochondrial complex-I activity,[1],significantly inhibitory effect on complex-I
O=C(O[C@@H]1Cc2c(O)cc(O)cc2O[C@@H]1c1cc(O)c(O)c(O)c1)c1cc(O)c(O)c(O)c1 [(−)-epigallocatechin-3-gallate],dopaminergic neurodegeneration,[2],"prevents N-methyl-4-phenyl-1,2,3,6-tetrahydropyridine induced dopaminergic neurodegeneration"
CC(=O)N[C@@H](CS)C(=O)O [N-acetylcysteine],age-related decrease in complex-I activity,[3],can protect against age-related decrease in complex-I activity

# Reference: US20050202111A1, “Anti-Parkinson's disease pharmaceutical and method of use” (priority 2004, published 2005)
